Laboratory results reported in US10160747B2, “Compounds and methods for kinase modulation, and indications therefor” (Plexxikon Inc., priority 2016, dated 2018).

Key:
[1] = test system: MOLM-14 D835Y (endogenous FLT3 ITD and transfected FLT3 D835Y); assay: MOLM-14 D835Y cell proliferation assay (CellTiter-Glo); format: cell-based; conditions: Homo sapiens, MOLM-14, 72 h; 3 d growth, GMean
Method in brief: (§1)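 MOLM-14 derivatives carrying D835Y or F691L, selected under escalating AC220, were seeded at 1×10^4 cells/well and exposed to an 8-point 1:3 compound series (1 to 0.00046 μM, 0.2% DMSO final) for three days at 37° C., 5% CO2. CellTiter-Glo luminescence (ATP content) versus concentration gave IC50.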

[2] = target: T1, BA/F3-FLT3-ITD + D835Y (Homo sapiens, UniProt P36888, D835Y, cells depend on it, form not given); assay: Engineered BA/F3 cell growth assay, FLT3 ITD/D835Y; format: cell-based, murine; conditions: 3 d growth
T1 sequence (P36888 with tags, fused parts or gaps INS600HVDFREYEYD/D835Y): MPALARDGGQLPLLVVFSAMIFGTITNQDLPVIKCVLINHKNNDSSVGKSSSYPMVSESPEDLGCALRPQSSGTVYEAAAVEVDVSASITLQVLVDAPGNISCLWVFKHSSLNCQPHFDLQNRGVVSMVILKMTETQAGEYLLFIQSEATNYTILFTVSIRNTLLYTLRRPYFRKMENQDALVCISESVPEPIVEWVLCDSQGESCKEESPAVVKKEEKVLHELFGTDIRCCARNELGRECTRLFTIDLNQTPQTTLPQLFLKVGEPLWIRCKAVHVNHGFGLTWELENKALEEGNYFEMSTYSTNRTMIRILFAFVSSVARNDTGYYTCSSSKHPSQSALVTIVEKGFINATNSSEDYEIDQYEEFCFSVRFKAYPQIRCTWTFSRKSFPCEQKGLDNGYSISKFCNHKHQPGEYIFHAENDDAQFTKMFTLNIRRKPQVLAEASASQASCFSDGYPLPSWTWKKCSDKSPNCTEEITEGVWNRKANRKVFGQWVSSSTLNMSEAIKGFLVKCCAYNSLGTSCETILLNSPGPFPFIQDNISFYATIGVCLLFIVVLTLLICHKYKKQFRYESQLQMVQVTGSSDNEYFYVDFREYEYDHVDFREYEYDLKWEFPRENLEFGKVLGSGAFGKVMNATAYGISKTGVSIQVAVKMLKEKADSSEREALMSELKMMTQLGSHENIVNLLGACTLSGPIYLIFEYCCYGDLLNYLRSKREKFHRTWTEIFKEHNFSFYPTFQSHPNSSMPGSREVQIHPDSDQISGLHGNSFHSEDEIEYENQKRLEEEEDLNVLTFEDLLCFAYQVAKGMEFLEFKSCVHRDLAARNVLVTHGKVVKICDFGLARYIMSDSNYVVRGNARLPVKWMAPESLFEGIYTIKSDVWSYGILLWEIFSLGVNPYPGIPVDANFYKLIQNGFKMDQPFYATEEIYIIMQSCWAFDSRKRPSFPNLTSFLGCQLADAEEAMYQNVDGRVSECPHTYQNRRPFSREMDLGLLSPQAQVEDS
Method in brief: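 IC50 derived from CellTiter-Glo ATP luminescence after 3 days at 37 °C, 5% CO2, over eight 1:3 dilutions from 1 μM (0.2% DMSO final). Cells: IL-3-independent murine Ba/F3 expressing full-length FLT3 ITD/D835Y, 1×10^4 per well.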

[3] = target: CSF1R (Homo sapiens, UniProt P07333); assay: CSF1R 100 ATP 8 pt kinase assay (Table 6); format: biochemical
From the text: The following Table 6 provides data indicating FLT3 ITD, D835Y and F691L; c-KIT and CSF1R biochemical and/or cell inhibitory activity for exemplary compounds as described herein.

[4] = test system: MOLM-14 F691L (endogenous FLT3 ITD and transfected FLT3 F691L); assay: MOLM-14 F691L cell proliferation assay (CellTiter-Glo); format: cell-based; conditions: Homo sapiens, MOLM-14, 72 h; 3 d growth, GMean
Method in brief: as §1

Sequence of CSF1R (P07333 20-972, species assumed): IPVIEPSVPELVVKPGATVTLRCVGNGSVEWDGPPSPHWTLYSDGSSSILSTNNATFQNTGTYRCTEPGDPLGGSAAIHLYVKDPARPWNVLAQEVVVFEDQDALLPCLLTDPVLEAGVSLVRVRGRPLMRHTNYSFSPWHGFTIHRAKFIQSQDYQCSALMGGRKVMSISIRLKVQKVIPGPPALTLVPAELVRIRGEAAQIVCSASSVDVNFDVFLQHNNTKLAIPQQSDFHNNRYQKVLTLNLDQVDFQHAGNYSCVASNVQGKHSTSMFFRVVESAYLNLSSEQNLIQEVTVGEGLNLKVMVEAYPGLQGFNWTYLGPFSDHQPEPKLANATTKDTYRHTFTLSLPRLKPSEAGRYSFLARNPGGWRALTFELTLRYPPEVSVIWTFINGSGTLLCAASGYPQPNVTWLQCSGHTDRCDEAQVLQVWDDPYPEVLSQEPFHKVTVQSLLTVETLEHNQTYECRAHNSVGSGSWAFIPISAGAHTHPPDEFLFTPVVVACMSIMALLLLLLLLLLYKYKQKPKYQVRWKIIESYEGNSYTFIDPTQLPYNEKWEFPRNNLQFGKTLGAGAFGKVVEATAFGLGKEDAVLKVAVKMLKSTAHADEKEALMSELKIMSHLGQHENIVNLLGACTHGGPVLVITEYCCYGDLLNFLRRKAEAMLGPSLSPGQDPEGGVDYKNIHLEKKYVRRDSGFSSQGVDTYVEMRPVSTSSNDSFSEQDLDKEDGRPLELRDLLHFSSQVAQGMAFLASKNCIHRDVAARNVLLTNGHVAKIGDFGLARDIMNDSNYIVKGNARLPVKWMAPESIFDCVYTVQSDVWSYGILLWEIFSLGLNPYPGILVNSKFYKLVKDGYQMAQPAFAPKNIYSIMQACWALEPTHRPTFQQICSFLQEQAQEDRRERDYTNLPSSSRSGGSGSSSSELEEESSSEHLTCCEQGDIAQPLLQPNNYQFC

IC50 [1]	GI50 [2]	IC50 [3]	IC50 [4]	Structure (SMILES)
0.0001 to 10 µM	0.0001 to 10 µM	0.0001 to 10 µM	–	Cc1n[nH]c2ncc(-c3cc(F)c(CC(=O)Nc4cncc(C(F)(F)F)c4)cc3F)cc12 [Compound P-0173, 2-[2,5-difluoro-4-(3-methyl-1H-pyrazolo[3,4-b]pyridin-5-yl)phenyl]-N-[5-(trifluoromethyl)-3-pyridyl]acetamide]
0.0001 to 10 µM	0.0001 to 10 µM	0.0001 to 10 µM	–	Cc1ncc(NC(=O)Cc2cc(F)c(-c3cnc4[nH]nc(C)c4c3)cc2F)cc1C(F)(F)F [Compound P-0175, 2-(2,5-difluoro-4-(3-methyl-1H-pyrazolo[3,4-b]pyridin-5-yl)phenyl)-N-(6-methyl-5-(trifluoromethyl)pyridin-3-yl)acetamide]
0.0001 to 10 µM	0.0001 to 10 µM	–	0.0001 to 10 µM	COCCn1cc(Nc2ncc(-c3ccc(CC(=O)Nc4cnc(C)c(C(F)(F)F)c4)cc3)cn2)cn1 [Compound P-0179, 2-[4-[2-[[1-(2-methoxyethyl)pyrazol-4-yl]amino]pyrimidin-5-yl]phenyl]-N-[6-methyl-5-(trifluoromethyl)-3-pyridyl]acetamide]
0.0001 to 10 µM	0.0001 to 10 µM	–	0.0001 to 10 µM	O=C(Cc1ccc(-c2cnc3[nH]c(-c4ccnc(N5CCOCC5)c4)cc3c2)cn1)Nc1ccnc(C(F)(F)F)c1 [Compound P-0181, 2-[5-[2-(2-morpholino-4-pyridyl)-1H-pyrrolo[2,3-b]pyridin-5-yl]-2-pyridyl]-N-[2-(trifluoromethyl)-4-pyridyl]acetamide]
0.0001 to 10 µM	0.0001 to 10 µM	–	0.0001 to 10 µM	N#Cc1cc(-c2cc3cc(-c4ccc(CC(=O)Nc5ccnc(C(F)(F)F)c5)nc4)cnc3[nH]2)ccn1 [Compound P-0182, 2-[5-[2-(2-cyano-4-pyridyl)-1H-pyrrolo[2,3-b]pyridin-5-yl]-2-pyridyl]-N-[2-(trifluoromethyl)-4-pyridyl]acetamide]
0.0001 to 10 µM	0.0001 to 10 µM	–	0.0001 to 10 µM	COc1ccc(-c2cc3cc(-c4ccc(CC(=O)Nc5cncc(C(F)(F)F)c5)cc4F)cnc3[nH]2)cn1 [Compound P-0196, 2-[3-fluoro-4-[2-(6-methoxy-3-pyridyl)-1H-pyrrolo[2,3-b]pyridin-5-yl]phenyl]-N-[5-(trifluoromethyl)-3-pyridyl]acetamide]
0.0001 to 10 µM	0.0001 to 10 µM	–	0.0001 to 10 µM	O=C(Cc1ccc(-c2cnc3[nH]c(-c4cnn(C(F)F)c4)cc3c2)c(F)c1)Nc1cncc(C(F)(F)F)c1 [Compound P-0197, 2-[4-[2-[1-(difluoromethyl)pyrazol-4-yl]-1H-pyrrolo[2,3-b]pyridin-5-yl]-3-fluoro-phenyl]-N-[5-(trifluoromethyl)-3-pyridyl]acetamide]
0.0001 to 10 µM	0.0001 to 10 µM	–	0.0001 to 10 µM	N#Cc1cc(-c2cc3cc(-c4ccc(CC(=O)Nc5cncc(C(F)(F)F)c5)cc4F)cnc3[nH]2)ccn1 [Compound P-0199, 2-[4-[2-(2-cyano-4-pyridyl)-1H-pyrrolo[2,3-b]pyridin-5-yl]-3-fluoro-phenyl]-N-[5-(trifluoromethyl)-3-pyridyl]acetamide]

The remaining lines, values behind:

Structure (SMILES)	IC50 [1]	GI50 [2]	IC50 [3]	IC50 [4]
COc1ncc(NC(=O)Cc2ccc(-c3cnc4[nH]nc(C)c4c3)c(F)c2)cc1C(F)(F)F [Compound P-0174, 2-[3-fluoro-4-(3-methyl-1H-pyrazolo[3,4-b]pyridin-5-yl)phenyl]-N-[6-methoxy-5-(trifluoromethyl)-3-pyridyl]acetamide]	0.0001 to 10 µM	0.0001 to 10 µM	0.0001 to 10 µM	–
Cc1n[nH]c2ncc(-c3ccc(CC(=O)Nc4cncc(C(F)(F)F)c4)cc3F)cc12 [Compound P-0177, 2-[3-fluoro-4-(3-methyl-1H-pyrazolo[3,4-b]pyridin-5-yl)phenyl]-N-[5-(trifluoromethyl)-3-pyridyl]acetamide]	0.0001 to 10 µM	0.0001 to 10 µM	0.0001 to 10 µM	–
COCCn1cc(Nc2ncc(-c3ccc(CC(=O)Nc4cncc(C(F)(F)F)c4)cc3)cn2)cn1 [Compound P-0178, 2-[4-[2-[[1-(2-methoxyethyl)pyrazol-4-yl]amino]pyrimidin-5-yl]phenyl]-N-[5-(trifluoromethyl)-3-pyridyl]acetamide]	0.0001 to 10 µM	0.0001 to 10 µM	–	0.0001 to 10 µM
COc1nn(C[C@H](C)O)cc1Nc1ncc(-c2ccc(CC(=O)Nc3cnc(C)c(C(F)(F)F)c3)cc2)cn1 [Compound P-0180, 2-[4-[2-[[1-[(2S)-2-hydroxypropyl]-3-methoxy-pyrazol-4-yl]amino]pyrimidin-5-yl]phenyl]-N-[6-methyl-5-(trifluoromethyl)-3-pyridyl]acetamide]	0.0001 to 10 µM	0.0001 to 10 µM	–	0.0001 to 10 µM
O=C(Cc1ccc(-c2cnc3[nH]c(-c4ccc(N5CCOCC5)nc4)cc3c2)cn1)Nc1ccnc(C(F)(F)F)c1 [Compound P-0183, 2-[5-[2-(6-morpholino-3-pyridyl)-1H-pyrrolo[2,3-b]pyridin-5-yl]-2-pyridyl]-N-[2-(trifluoromethyl)-4-pyridyl]acetamide]	0.0001 to 10 µM	0.0001 to 10 µM	–	0.0001 to 10 µM
O=C(Cc1ccc(-c2cnc3[nH]c(-c4ccc(N5CCOCC5)nc4)cc3c2)c(F)c1)Nc1cc(C(F)(F)F)ccn1 [Compound P-0192, 2-[3-fluoro-4-[2-(6-morpholino-3-pyridyl)-1H-pyrrolo[2,3-b]pyridin-5-yl]phenyl]-N-[4-(trifluoromethyl)-2-pyridyl]acetamide]	0.0001 to 10 µM	0.0001 to 10 µM	–	0.0001 to 10 µM
O=C(Cc1ccc(-c2cnc3[nH]c(-c4ccc(N5CCOCC5)nc4)cc3c2)c(F)c1)Nc1cncc(C(F)(F)F)c1 [Compound P-0198, 2-[3-fluoro-4-[2-(6-morpholino-3-pyridyl)-1H-pyrrolo[2,3-b]pyridin-5-yl]phenyl]-N-[5-(trifluoromethyl)-3-pyridyl]acetamide]	0.0001 to 10 µM	0.0001 to 10 µM	–	0.0001 to 10 µM
